One data set relates to human arteria mammaria. Briefly: Relaxation of the human arteria mammaria in vitro. The conditions noted are these: FIG. 1b. From the text: B. Relaxation of the Human Arteria Mammaria in vitro by S-nitroso-N-acetylcysteine ethyl ester and S-nitro-N-acetylcysteine ethyl ester
b. Relaxation of the human arteria mammaria in vitro by S-nitroso-N-acetylxysteine ethyl ester (SNACET) and S-nitro-N-acetylcysteine ethyl ester (SNO2ACET).

For the next data set, the system named is human Corpus Cavernosum. Briefly: Relaxation of the human Corpus Cavernosum in vitro. To be noted: FIG. 1a. From the text:
A. Relaxation of the Human Corpus Cavernosum in vitro by Means of S-nitroso-N-acetylcysteine ethyl ester, S-nitroso-N-(O-acetylsalicyl)cysteine ethyl ester and Their Metabolites
a. Relaxation of the human Corpus Cavernosum in vitro by S-nitroso-N-acetylcysteine-ethylester (SNACET), S-nitroso-N-(O-acetylsalicyl)cysteine ethyl ester (ASS-SNCET) and their metabolites SNCET and SNAC.

The conditions of data set [1]: in vivo in an animal; cited from earlier work.
A further data set concerns human blood platelets. Briefly: Inhibition of collagen-induced aggregation of washed human blood platelets in vitro. In kind it is cell-based. To be noted: Platelet, collagen-induced (2 μg/ml). As to the method: Inhibition of the Aggregation of Human Blood Platelets in vitro by Means of S-nitroso-N-acetylcysteine ethyl ester (SNACET) and S-nitroso-N-(O-acetylsalicyl)cysteine ethyl ester (ASS-SNCET)
(§1) Collagen-induced (2 μg/ml) aggregation and thromboxane synthesis in human blood platelets which have been washed are inhibited by SNACET in a concentration-dependent manner (FIG. 4a). The IC50s for the inhibition of the platelet aggregation and the thromboxane synthesis by SNACET are determined at 1 and 0.5 μM. Collagen-induced (2 μg/ml) aggregation of human blood platelets that have been washed is inhibited by ASS-SNCET in a concentration-dependent manner (FIG. 4b). The IC50 for the inhibition of the platelet aggregation by ASS-SNCET is determined at 2 μM (FIG. 4b).
(§2) a. Inhibition of the collagen-induced (2 μg/ml) aggregation of human blood platelets that have been washed and the thromboxane synthesis in the platelets in vitro by S-nitroso-N-acetylcysteine ethyl ester (SNACET).
b. Inhibition of the collagen-induced (2 μg/ml) aggregation of human blood platelets in vitro that have been washed by S-nitroso-N-(O-acetylsalicyl)cysteine ethyl ester (ASS-SNCET). The values are average values from analyses with platelets of four healthy subjects.

A short description of data set [2]: Penetration by human Tunica albuginea in vitro in a Franz' cell. In kind it is in vitro ADME. To be noted: SNACET in dimethyl sulphoxide, FIG. 2. The procedure: Penetration of S-nitroso-N-acetylsysteine ethyl ester (SNACET) by Human Tunica albuginea in vitro
Part of Tunica albuginea which has just been prepared is fixed in a Franz' cell. The active surface is 1.77 cm^2. The acceptor phase (10 ml) consists of Hank's buffer (pH 7.4), human albumin (30 g/l), penicillin G (100 units) and streptomycin (10 μg) and is stirred with a magnetic stirrer at a constant rotation speed. The penetration is started by application of solutions of SNACET in dimethyl sulphoxide at various concentrations (0.25 ml) on the part of the skin. At various points in time, samples are taken from the acceptor phase and the concentration of the sum from SNACET and its metabolites is determined. In the acceptor phase, unmodified SNACET and other metabolites including nitrite are detected. […] The penetration rate and the amount of the penetrated SNACET and their metabolites in the acceptor phase depend on the amount of SNACET applied onto the Tunica albuginea. The lag time is approximately 20 min. In the linear region, the penetration rates are 1.0, 2.5 or 5.0 μmol SNACET/hour.
Penetration of S-nitroso-N-acetylcysteine ethyl ester (SNACET) by human Tunica albuginea in vitro in a Franz' cell. Three different amounts dissolved in dimethyl sulphoxide (250 μl each) were applied (see Legend).

The test system of a further data set is Sprague Dawley rat. Briefly: Hypotensive effect in vivo in the rat (i.v. infusion, average artery blood pressure). To be noted: anaesthetised male Sprague Dawley rat, FIG. 3. From the text: Hypotensive Effect of SNACET in vivo in the Rat
S-nitroso-N-acetylcysteine-ethylester (SNACET) is applied i.v. to a male, anaesthetised Sprague Dawley rat which has a weight of 400 g. Before and after the infusion, the average artery blood pressure is taken continuously.
Hypotensive effect of SNACET in vivo in the rat. SNACET was applied i.v. with the infusion rates stated.

Data set [3] deals with thromboxane synthesis in human blood platelets. Description: Inhibition of collagen-induced thromboxane synthesis in washed human blood platelets in vitro. Type of data set: cell-based. To be noted: Platelet, collagen-induced (2 μg/ml). As to the method: as §1, §2
For data set [4] the following is noted: humans; cited from earlier work.
For data set [5] the following is noted: in vitro and in vivo, humans; cited from earlier work.
Data set [6] can be described thus: In vivo metabolism of orally applied 15N-marked SNACET in the rat (urine, GC-MS). To be noted: oral 17.5 mg/kg. As to the method: In vivo Metabolism of Orally Applied ^15N-marked S-nitroso-N-acetylcysteine ethyl ester (^15N-SNACET) in the Rat
A male Sprague Dawley rat weighing 480 g is orally given 17.5 mg of ^15N-marked S-nitroso-N-acetylcysteine ethyl ester (^15N-SNACET) per kg body weight, dissolved in 1 ml of a 10% (w/v) glucose solution in drinking water. Before and up to 24 hours after application, urine is collected and the ^15N-concentration of nitrate, nitrite and S-nitroso metabolites of ^15N-SNACET is determined by means of GC-MS.
Metabolism of orally applied ^15N-marked S-nitroso-N-acetylcysteine-ethylester (17.5 mg/kg body weight) in a rat. ^15N-concentration of nitrate, nitrite and for the sum of ^15N-marked S-nitroso-N-acetylcysteine ethyl ester and its metabolites collected in the urine before and up to 24 hours after the application.

`CCOC(=O)[C@H](CS[N+](=O)[O-])NC(C)=O` [SNO2-ACET, S-nitro-N-acetylcysteine ethyl ester]: the “Relaxation of human arteria mammaria” value in the data set with human arteria mammaria is “relax human arteria mammaria in vitro in a concentration-dependent manner”.

As to `CC(=O)N[C@@H](CSN=O)C(=O)O` [SNAC, S-nitroso-N-acetylcysteine], in the data set on human Corpus Cavernosum, the “Relaxation of human Corpus Cavernosum” value is recorded as “relax human Corpus Cavernosum in vitro in a concentration-dependent manner”.

Turning to “S-nitroso-N-acetyl penicillamines [SNAP]”, the Development of tolerance entry in data set [1] is listed as “show no development of tolerance”.

On to `CCOC(=O)[C@H](CSN=O)NC(C)=O` [SNACET, S-nitroso-N-acetylcysteine ethyl ester], for which the “Relaxation of human Corpus Cavernosum” value in the data set on human Corpus Cavernosum is listed as “relax human Corpus Cavernosum in vitro in a concentration-dependent manner”. Besides, the results for the IC50 (with human blood platelets; in data set [3]) were 1000 nM and 500 nM, respectively. For the same compound, in data set [2], the “Penetration of the Tunica albuginea” value is listed as “penetrates the Tunica albuginea”. The “Average artery blood pressure” value in the data set with Sprague Dawley rat is listed as “the average artery blood pressure decreases in dependence on the infusion rate”. For the same compound, the “Relaxation of human arteria mammaria” value in the data set with human arteria mammaria is “relax human arteria mammaria in vitro in a concentration-dependent manner”.

With `CCOC(=O)[C@@H](N)CSN=O` [SNCET, S-nitroso-cysteine ethyl ester], the “Relaxation of human Corpus Cavernosum” value in the data set on human Corpus Cavernosum was “relax human Corpus Cavernosum in vitro in a concentration-dependent manner”.

Turning to `N[C@@H](CCC(=O)N[C@@H](CSN=O)C(=O)NCC(=O)O)C(=O)O` [S-nitroso glutathion, S-nitroso-L-glutathion], the Rate of embolism entry in [4] was “reduces the rate of embolism in humans”. In addition, in data set [5], the “Anti-hypertensive and anti-aggregatory effect” value is “have an anti-hypertensive and an anti-aggregatory effect in humans”.

For `CCOC(=O)[C@H](CS[15N]=O)NC(C)=O` [^15N-SNACET, ^15N-marked S-nitroso-N-acetylcysteine ethyl ester], the “Time of the highest 15N-concentration in urine” value in data set [6] is “within the first two hours”. Besides, in data set [6] (24 hours), the “15N-concentration in the urine 24 hours after the administration” value is given as “insignificantly higher than the natural occurrence of ^15N”. In data set [6] (urine up to 24 hours), the “Main metabolite in urine” value is “^15N-nitrate”; the “Secretion of unchanged compound and S-nitroso metabolites into the urine” value is “neither ^15N-SNACET no other S-[^15N]nitroso-containing metabolites are secreted into the urine”.

As usually defined, the IC50 is the midpoint of a concentration-inhibition curve.

The values above are taken from patent publication US6613937B2, “S-nitroso- and S-nitro-N-acyl-L-cysteine ester derivatives as pharmalogically active agents and pharmaceutical compositions containing said compounds” (priority 1999, dated 2003).
